Earlier results in patent publication US20130116244A1, “PHAR[…] COMPOSITIONS” (AESICA FORMULATION DEVELOPMENT LIMITED, priority 2010, published 2013).

Legend:
[1] = in vivo
[2] = not given; remark: listed apart in the source

Compound	time after which anticonvulsant/sedative effects wear off (typically) [min]	duration of anticonvulsant/sedative effects (effects can last for) [h]	half life [1] [h]	diazepam dose equal in effect to lorazepam 1 mg (relative potency) [2] [mg]
CN1C(=O)CN=C(c2ccccc2)c2cc(Cl)ccc21 [diazepam]	15 to 30			
O=C1Nc2ccc(Cl)cc2C(c2ccccc2Cl)=NC1O (stereo not shown) [lorazepam, 7-chloro-5-(2-chlorophenyl)-1,3-dihydro-3-hydroxy-2H-1,4-benzodiazepin-2-one]		12 to 24	10 to 20	10
